Results as given in patent US20110237592A1, “SUBSTITUTED AMIDO PHENOXYBENZAMIDES” (BAYER SCHERING PHARMA AKTIENGESELLSCHAFT, priority 2008, published 2011).
pIC50: −log10 of the molar value.

Tests used:
MEK1/2 = settings: background statement, ref. [17]; cited from earlier work
colon cancer = settings: oral treatment, mouse models, ref. [18]; cited from earlier work
MEK1 = biological target: T1, MEK1 (Homo sapiens, UniProt Q02750); test: MEK1 activation kinase assay (Cot1, HTRF); type: biochemical; settings: inhibition of Cot1-mediated activation of GST-MEK1, HTRF
T1 construct: purchased Millipore 14-420
T1 sequence (Q02750 whole entry): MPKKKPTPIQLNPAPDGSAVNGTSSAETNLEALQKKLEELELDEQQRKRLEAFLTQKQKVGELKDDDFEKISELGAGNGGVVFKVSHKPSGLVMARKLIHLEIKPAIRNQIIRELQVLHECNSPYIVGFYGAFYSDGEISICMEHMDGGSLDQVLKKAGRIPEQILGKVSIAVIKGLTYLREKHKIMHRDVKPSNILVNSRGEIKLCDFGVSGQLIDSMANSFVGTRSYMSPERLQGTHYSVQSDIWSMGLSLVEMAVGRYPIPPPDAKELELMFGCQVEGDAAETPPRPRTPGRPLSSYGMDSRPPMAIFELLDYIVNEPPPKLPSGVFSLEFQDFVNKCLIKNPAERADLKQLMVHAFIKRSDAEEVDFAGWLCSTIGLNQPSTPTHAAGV
Text: The kinase Cot1 activates MEK1 by phosphorylating its activation loop. The inhibitory activity of compounds of the present invention on this activation of MEK1 was quantified employing the HTRF assay described in the following paragraphs.
N-terminally His6-tagged recombinant kinase domain of the human Cot1 (amino acids 30-397, purchased from Millipore, cat. no 14-703) expressed in insect cells (SF21) and purified by Ni-NTA affinity chromatography was used as kinase. As substrate for the kinase reaction the unactive C-terminally His6-tagged GST-MEK1 fusion protein (Millipore cat. no 14-420) was used.
For the assay 50 nl of a 100 fold concentrated solution of the test compound in DMSO was pipetted into a black low volume 384 well microtiter plate (Greiner Bio-One, Frickenhausen, Germany), 3 μl of a solution of 24 nM GST-MEK1 and 166.7 μM adenosine-tri-phosphate (ATP) in assay buffer [50 mM Tris/HCl pH 7.5, 10 mM MgCl2, 2 mM dithiothreitol, 0.01% (v/v) Igepal CA 630 (Sigma), 5 mM β-phospho-glycerol] were added and the mixture was incubated for 10 min at 22° C. to allow pre-binding of the test compounds to the GST-MEK1 before the start of the kinase reaction. Then the kinase reaction was started by the addition of 2 μl of a solution of Cot1 in assay buffer and the resulting mixture was incubated for a reaction time of 20 min at 22° C. […]
The resulting mixture was incubated 2 h at 22° C. to allow the binding of the phosphorylated GST-MEK1 to the anti-GST-XL665 and the Eu-cryptate labelled anti-phospho-MEK 1/2 antibody. Subsequently the amount of Ser217/Ser221-phosphorylated substrate was evaluated by measurement of the resonance energy transfer from the Eu-Cryptate-labelled anti-phospho-MEK antibody to the anti-GST-XL665. Therefore, the fluorescence emissions at 620 nm and 665 nm after excitation at 350 nm was measured in a HTRF reader, e.g. a Rubystar (BMG Labtechnologies, Offenburg, Germany) or a Viewlux (Perkin-Elmer). […]

A375 cells = test: A375 proliferation crystal violet (CV) assay; type: cell-based; settings: Homo sapiens, A-375, 96 h, crystal violet staining, 4 days
Experimental: Alternatively, the cell proliferation was measured by crystal violet (CV) staining: Assay 7
Cultivated human A375 cells were plated out in a density of 1500 cells/measurement point in 200 μl of growth medium (DMEM/HAMS F12 (Biochrom; FG4815) with 10% FBS and 2 mM Glutamine) in a 96-well multititer plate. After 24 hours, the cells from a plate (zero plate) were stained with crystal violet (see below), while the medium in the other plates was replaced by fresh culture medium (200 μl) to which the test substances had been added in various concentrations (0 μM, and in the range 0.3 nM-30 μM; the final concentration of the solvent dimethyl sulphoxide was 0.5%). The cells were incubated in the presence of the test substances for 4 days. The cell proliferation was determined by staining the cells with crystal violet: the cells were fixed by adding 20 μl/measurement point of an 11% glutaraldehyde solution at room temperature for 15 min. After the fixed cells had been washed three times with water, the plates were dried at room temperature. The cells were stained by adding 100 μl/measurement point of a 0.1% crystal violet solution (pH adjusted to pH 3 by adding acetic acid). After the stained cells had been washed three times with water, the plates were dried at room temperature. The dye was dissolved by adding 100 μl/measurement point of a 10% acetic acid solution, and the extinction was determined by photometry at a wavelength of 595 nm. The percentage change in cell growth was calculated by normalizing the measurements to the extinctions of the zero point plate (=0%) and the extinction of the untreated (0 μM) cells (=100%). The IC50 values were determined by means of a 4-parameter fit using the company's own software.

[1] = currently preferred example compounds

| Structure (SMILES) | pIC50 (A375 cells; [1]) | also measured |
| --- | --- | --- |
| O=C(NOCC1CC1)c1ccc(F)c(F)c1Nc1ccc(I)cc1Cl [CI-1040] |  | IC50 (MEK1/2): low nanomolar range; colon cancer growth in vivo (colon cancer): inhibit colon cancer growth in vivo |
| CC(C)(O)C(=O)Nc1cccc(Oc2cc(F)cc(Nc3ccc(I)cc3F)c2C(N)=O)c1 [Example 1.1, 4-Fluoro-2-(2-fluoro-4-iodo-phenylamino)-6-[3-(2-hydroxy-2-methylpropionylamino)-phenoxy]-benzamide] | > 7.00 | pIC50 (MEK1): > 7.00; pIC50 (A375 cells): > 6.00 |
| NC(=O)c1c(Nc2ccc(I)cc2F)cc(F)cc1Oc1cccc(NC(=O)CO)c1 [Example 3.1, 4-Fluoro-2-(2-fluoro-4-iodo-phenylamino)-6-[3-(2-hydroxy-acetylamino)-phenoxy]-benzamide] | > 7.00 |  |
| COCC(=O)Nc1cccc(Oc2cc(F)cc(Nc3ccc(I)cc3F)c2C(N)=O)c1 [Example 3.2, 4-Fluoro-2-(2-fluoro-4-iodo-phenylamino)-6-[3-(2-methoxy-acetylamino)-phenoxy]-benzamide] | > 7.00 |  |
| CSCC(=O)Nc1cccc(Oc2cc(F)cc(Nc3ccc(I)cc3F)c2C(N)=O)c1 [Example 3.3, 4-Fluoro-2-(2-fluoro-4-iodo-phenylamino)-6-[3-(2-methylsulfanyl-acetylamino)-phenoxy]-benzamide] | > 7.00 |  |
| NC(=O)c1c(Nc2ccc(I)cc2F)cc(F)cc1Oc1cccc(NC(=O)C2CCOCC2)c1 [Example 3.5, Tetrahydro-pyran-4-carboxylic acid {3-[2-carbamoyl-5-fluoro-3-(2-fluoro-4-iodo-phenylamino)-phenoxy]-phenyl}-amide] | > 7.00 |  |
| CC(O)C(=O)Nc1cccc(Oc2cc(F)cc(Nc3ccc(I)cc3F)c2C(N)=O)c1 (stereo not drawn) [Example 3.6, 4-Fluoro-2-(2-fluoro-4-iodo-phenylamino)-6-[3-(2-hydroxy-propionylamino)-phenoxy]-benzamide] | > 7.00 |  |
| NC(=O)c1c(Nc2ccc(I)cc2F)cc(F)cc1Oc1cccc(NC(=O)CN2CCOCC2)c1 [Example 3.7, 4-Fluoro-2-(2-fluoro-4-iodo-phenylamino)-6-[3-(2-morpholin-4-yl-acetylamino)-phenoxy]-benzamide] | > 7.00 |  |
| CN1CCC(C(=O)Nc2cccc(Oc3cc(F)cc(Nc4ccc(I)cc4F)c3C(N)=O)c2)CC1 [Example 3.17, 1-Methyl-piperidine-4-carboxylic acid {3-[2-carbamoyl-5-fluoro-3-(2-fluoro-4-iodo-phenylamino)-phenoxy]-phenyl}-amide] |  | pIC50 (MEK1): > 7.00 |
| NC(=O)c1c(Nc2ccc(I)cc2F)cc(F)cc1Oc1ccc2oc(=O)[nH]c2c1 [Example 4.1, 4-Fluoro-2-(2-fluoro-4-iodo-phenylamino)-6-(2-oxo-2,3-dihydro-benzooxazol-5-yloxy)-benzamide] | > 7.00 | pIC50 (MEK1): > 7.00 |
| NC(=O)c1c(Nc2ccc(I)cc2F)cc(F)cc1Oc1cccc(NC(=O)C(F)(F)F)c1 [Example 5.1, 4-Fluoro-2-(2-fluoro-4-iodo-phenylamino)-6-[3-(2,2,2-trifluoro-acetylamino)-phenoxy]-benzamide] |  | pIC50 (A375 cells): > 6.00 |
